Data as given in patent publication US20250046404A1, “SYSTEMS AND METHODS RELATING TO A MACHINE LEARNING PREDICTION MODEL FOR PREDICTING MOLECULAR TARGETS OF SMALL MOLECULES” (KBR WYLE SERVICES, LLC, priority 2023, published 2025).

What was measured:
miR-451 [1] = assay: Zebrafish embryo erythrocyte accumulation with PTU, O-dianisidine hemoglobin stain; format: in vivo; details: for hemoglobinized cells / blood accumulation (O-dianisidine staining): 2-day-old embryos, lateral view, tail region, upon drug treatment
Experimental: Zebrafish embryos were incubated with different drug candidates predicted by sChemNET in combination with phenyl-thiourea (PTU), a chemical known to induce anemia due to oxidative stress when miR-451 activity is impaired, but not in wild-type embryos. 48 hours after fertilization, embryos display robust blood circulation. At this stage, the accumulation of mature erythrocytes can be easily assessed in transparent embryos using O-dianisidine, a hemoglobin-specific stain. Drugs impairing miR-451 activity induce anemia, while miR-451 boosting drugs will increase erythrocyte production (blood circulation).
Ventral images of 2-day-old embryos stained with O-dianisidine reveal hemoglobinized cells (brown staining).) for wild-type embryos and those treated with docetaxel, β-elemene and α-calcidol. Blood accumulated in the ventral region (ducts of Cuvier).

miR-451 [2] = assay: Effect on levels of miR-451; details: zebrafish, in vivo
Description: (§1) Either mechanism of action may be valid, as both pathways will allow the desired output, which complements miRNA activity.
(§2) Dicer processes miR-144, but at the same time is a target of miR-144 (PMID: 32191872), effectively canceling a potential drug-induced increase in miR-144 output.

miR-144 = assay: Effect on levels of miR-144; format: in vivo, Zebrafish; details: erythrocyte specific miR-144
Description: as §1, §2

Structure (SMILES) | hemoglobinized cells / blood accumulation (O-dianisidine staining) (miR-451 [1]) | blood production (miR-451 [1]; zebrafish, in vivo) | levels of miR-451 (miR-451 [2]) | levels of miR-144 (cluster partner of miR-451) (miR-144)
C=C1/C(=C\C=C2/CCC[C@]3(C)[C@@H]([C@H](C)CCCC(C)C)CC[C@@H]23)C[C@@H](O)C[C@@H]1O [α-Calcidol] | accumulation of the excess of blood in the tail region | boosts blood production | does not directly affect the levels | does not directly affect the levels
CC(=O)O[C@@]12CO[C@@H]1C[C@H](O)[C@@]1(C)C(=O)[C@H](O)C3=C(C)[C@@H](OC(=O)[C@H](O)[C@@H](NC(=O)OC(C)(C)C)c4ccccc4)C[C@@](O)([C@@H](OC(=O)c4ccccc4)[C@H]21)C3(C)C [docetaxel] | accumulation of the excess of blood in the tail region |  |  | 
C=C[C@]1(C)CC[C@@H](C(=C)C)C[C@H]1C(=C)C [β-elemene] | accumulation of the excess of blood in the tail region |  |  | 
